The conditions of data set [1]: cited from earlier work.
In a further data set the test system is infarct size. As to conditions: continuous arterial infusion over a six-hour period, free (non-liposomal); cited from earlier work.
In the next data set the test system is restenosis. As to conditions: intracoronary infusion over a 24-hour period; cited from earlier work.
The test system of the next data set is adjuvant arthritis. Nature of the data set: Rat adjuvant arthritis (complete Freund's adjuvant). The class given is in vivo, Male Lewis rats.
Another data set concerns LPS-induced death. Nature of the data set: Rat endotoxemia model, LPS-induced mortality. It is filed as in vivo, Male Sprague-Dawley rats. As to conditions: 50 µg/kg LPS i.v. at time 0, PGE1 40 µg/kg i.v. simultaneously.
Data set [2] concerns acute myocardial infarction. As to conditions: slow intracoronary infusion together with intracoronary streptokinase; cited from earlier work.
The subject of data set [3] is leukocyte extravasation from the peripheral vasculature to sites of inflammation. Nature of the data set: Rat subcutaneous air pouch, fMLP-induced inflammation. It is filed as in vivo, Male Sprague-Dawley rats. As to conditions: visual examination of post-stimulation air pouch lining. As to the method: • Figure 1. Release of PGE1 from MLVs. The release of prostaglandin E1 (PGE1) from multilamellar vesicles (MLVs) comprising egg phosphatidylcholine (EPC) or dipalmitoyl phosphatidylcholine (DPPC) formed in 50 mM citrate buffer, pH 4.5, and then incubated at room temperature in pH 7.1 buffer for the indicated amount of time, is set forth. X-axis: time (minutes); y-axis: percent PGE1 retained in pelleted liposomes. • Figure 2. Rat Air Pouch Studies. Liposomal PGE1 formulations inhibit the extravasation of leukocytes from the vasculature to the rat air pouch. Subcutaneous air pouches were formed in male Sprague-Dawley rats. fMLP (2.15 µg) was injected directly into the air pouch at time 0, and free or liposomal PGE1 was simultaneously injected intravenously. After six hours, the air pouch exudate was collected and the air pouch total cell population determined. For each treatment group, n=4. […] After six hours, the air pouch exudate was collected, and the air pouch total cell population determined. […] After six hours, the air pouch exudate was collected, and the air pouch total cell population determined. […] After six and 24 hours, the air pouch exudates were collected, and the air pouch total cell populations were determined. […]

Molecules are shown by their SMILES. Where two headings read alike, the source gives them in different places.

With `CCCCCC(C)(O)/C=C/[C@H]1[C@H](O)CC(=O)[C@@H]1CCCCCCC(=O)O` (some centres unmarked) [15-methyl-PGE1], the bioavailability in data set [1] (free stable prostaglandin analog) was no less than 8 h.
With `CCCCC[C@H](O)/C=C/[C@@H]1[C@H]2C/C(=C/CCCC(=O)O)O[C@H]2C[C@H]1O` [PGI2], the “reducing the infarct size” value in the data set on infarct size is on record as “scant effect”.
For `CCCCC[C@H](O)/C=C/[C@H]1[C@H](O)CC(=O)[C@@H]1CCCCCCC(=O)O` [free PGE1, prostaglandin E1], in data set [1] (free PGE1), the bioavailability was less than 0.25 h. Besides, the “reduction of the rate of restenosis six months after angioplasty versus untreated control group” value with restenosis is on record as roughly 50%. Also, the “inhibition of arthritis progression, treatment begun 10 days post-adjuvant” value in the data set on adjuvant arthritis (10 µg/kg beginning at day 10, every second day) is “still receive protection horn disease progression, although the inhibition of arthritis progression was not as profound”. Also, in the data set with adjuvant arthritis (10 µg/kg, injections every second day), the “progression of adjuvant arthritis (weight gain, joint edema)” value is listed as “attenuated the progression of adjuvant arthritis”. Also, the “subjective scoring of general health and mobility” value in the data set on adjuvant arthritis (10 µg/kg, scored at day 14) was “maintenance of general health and mobility”. The “reducing the infarct size” value in the data set with infarct size is reported as “scant effect”. Further, the LPS induced mortality result in the data set with LPS-induced death was “increased both the rate and magnitude of LPS induced mortality”. Moreover, the “clinical results versus intracoronary streptokinase alone” value in data set [2] is recorded as “positive clinical results”. In addition, the “vascular reactivity and number of leukocytes invading the pouch lining” value in data set [3] is “reduction in vascular reactivity and a concurrent reduction in the number of leukocytes invading the pouch lining”.
